# Experimental data from patent publication US9944654B2, “Nargenicin compounds and uses thereof as antibacterial agents” (priority 2014, dated 2018).
# pIC50: −log10 of the molar value. Like-named read-outs stand apart in the source and are kept apart here.
# Experiments:
# [1] = system: Pseudomonas aeruginosa MB5890 (CB1101, efflux-deleted); assay: microbe, parasite or virus in culture; format: cell-based; details: * = some reduction of growth versus control at […]; for MIC: Pseudomonas aeruginosa, read-out: P. aeruginosa MB5890 efflux-del (MIC), MHII broth
# [2] = system: Streptococcus pneumoniae MB6357 (CL 2883); assay: Nargenicin antibacterial assay (MIC), S. pneumoniae; format: cell-based; details: * = some reduction of growth versus control at […]; for MIC: Streptococcus pneumoniae, read-out: S. pneumoniae MB2883 (MIC), Isosensitest broth
# [3] = system: Staphylococcus aureus MB6266 (MRSA COL); assay: Nargenicin antibacterial assay (MIC), S. aureus; format: cell-based; details: * = some reduction of growth versus control at […]; for MIC: Staphylococcus aureus, MRSA, read-out: S. aureus COL (MIC), MHII broth + 50% human serum
# [4] = system: Escherichia coli MB5747 (LS 883, tolC); assay: microbe, parasite or virus in culture; format: cell-based; details: * = some reduction of growth versus control at […]; for MIC: Escherichia coli, read-out: E. coli LS883 tolC (MIC), MHII broth
# [5] = biological target: T1, S. aureus DnaE (DNA polymerase III α-subunit homolog from Staphylococcus aureus) (Staphylococcus aureus, UniProt Q5HF71); assay: biochemical; format: biochemical; details: for pIC50: S. aureus DnaE IC50; for IC50: read-out: S. aureus DnaE IC50 (converted)
# T1 construct: SaDnaE (S. aureus DnaE residues 1-1065); 6xHis (N); made in house; host or cells: E. coli BL21-AI
# T1 sequence (Q5HF71 1-1065): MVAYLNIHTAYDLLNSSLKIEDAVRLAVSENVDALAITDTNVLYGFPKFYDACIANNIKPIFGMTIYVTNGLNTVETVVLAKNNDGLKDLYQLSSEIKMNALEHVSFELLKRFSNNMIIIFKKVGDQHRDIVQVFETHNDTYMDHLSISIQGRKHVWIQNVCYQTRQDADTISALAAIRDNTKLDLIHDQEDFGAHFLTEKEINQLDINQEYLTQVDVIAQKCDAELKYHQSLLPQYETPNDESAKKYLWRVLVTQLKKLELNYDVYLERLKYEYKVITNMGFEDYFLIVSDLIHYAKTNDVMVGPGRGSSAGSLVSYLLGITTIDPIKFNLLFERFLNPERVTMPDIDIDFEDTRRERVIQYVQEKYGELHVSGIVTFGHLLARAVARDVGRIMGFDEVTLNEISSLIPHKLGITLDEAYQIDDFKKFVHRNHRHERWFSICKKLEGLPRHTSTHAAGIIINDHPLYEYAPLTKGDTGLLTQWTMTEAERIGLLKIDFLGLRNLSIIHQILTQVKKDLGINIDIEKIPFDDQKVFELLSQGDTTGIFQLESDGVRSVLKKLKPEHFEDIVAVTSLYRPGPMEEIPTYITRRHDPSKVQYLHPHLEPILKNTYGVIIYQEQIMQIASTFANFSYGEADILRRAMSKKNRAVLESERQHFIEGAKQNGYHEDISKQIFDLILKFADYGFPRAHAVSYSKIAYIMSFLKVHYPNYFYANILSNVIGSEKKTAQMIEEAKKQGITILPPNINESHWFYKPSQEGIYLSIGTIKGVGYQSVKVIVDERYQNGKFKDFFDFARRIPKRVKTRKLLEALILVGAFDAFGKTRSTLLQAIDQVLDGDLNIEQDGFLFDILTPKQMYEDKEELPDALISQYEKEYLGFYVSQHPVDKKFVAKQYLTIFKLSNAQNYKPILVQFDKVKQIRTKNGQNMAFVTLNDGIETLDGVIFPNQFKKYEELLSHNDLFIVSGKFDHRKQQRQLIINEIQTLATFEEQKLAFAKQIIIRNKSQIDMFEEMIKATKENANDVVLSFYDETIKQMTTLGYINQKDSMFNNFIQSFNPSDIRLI
# In short: (§1)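 His-tagged E. coli DnaE (residues 1-1160, 0.8 μg/ml) or S. aureus DnaE (residues 1-1065, 0.05 μg/ml) incubated 30 min at 30° C. with activated calf thymus DNA, 0.025 mM dATP/dGTP/dCTP and 0.011 mM 3H-dTTP in Tris pH 7.5/Mg acetate. TCA-precipitated labelled DNA counted.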
# [6] = biological target: T2, E. coli DnaE (DNA polymerase III α-subunit from Escherichia coli) (Escherichia coli, UniProt P10443); assay: In vitro DnaE single enzyme assay (E. coli); format: biochemical; details: for IC50: read-out: E. coli DnaE IC50 (converted); for pIC50: E. coli DnaE IC50
# T2 construct: EcDnaE (E. coli DnaE residues 1-1160); 6xHis (N); made in house; host or cells: E. coli BL21(DE3)
# T2 sequence (P10443 whole entry, the tested form may be a part): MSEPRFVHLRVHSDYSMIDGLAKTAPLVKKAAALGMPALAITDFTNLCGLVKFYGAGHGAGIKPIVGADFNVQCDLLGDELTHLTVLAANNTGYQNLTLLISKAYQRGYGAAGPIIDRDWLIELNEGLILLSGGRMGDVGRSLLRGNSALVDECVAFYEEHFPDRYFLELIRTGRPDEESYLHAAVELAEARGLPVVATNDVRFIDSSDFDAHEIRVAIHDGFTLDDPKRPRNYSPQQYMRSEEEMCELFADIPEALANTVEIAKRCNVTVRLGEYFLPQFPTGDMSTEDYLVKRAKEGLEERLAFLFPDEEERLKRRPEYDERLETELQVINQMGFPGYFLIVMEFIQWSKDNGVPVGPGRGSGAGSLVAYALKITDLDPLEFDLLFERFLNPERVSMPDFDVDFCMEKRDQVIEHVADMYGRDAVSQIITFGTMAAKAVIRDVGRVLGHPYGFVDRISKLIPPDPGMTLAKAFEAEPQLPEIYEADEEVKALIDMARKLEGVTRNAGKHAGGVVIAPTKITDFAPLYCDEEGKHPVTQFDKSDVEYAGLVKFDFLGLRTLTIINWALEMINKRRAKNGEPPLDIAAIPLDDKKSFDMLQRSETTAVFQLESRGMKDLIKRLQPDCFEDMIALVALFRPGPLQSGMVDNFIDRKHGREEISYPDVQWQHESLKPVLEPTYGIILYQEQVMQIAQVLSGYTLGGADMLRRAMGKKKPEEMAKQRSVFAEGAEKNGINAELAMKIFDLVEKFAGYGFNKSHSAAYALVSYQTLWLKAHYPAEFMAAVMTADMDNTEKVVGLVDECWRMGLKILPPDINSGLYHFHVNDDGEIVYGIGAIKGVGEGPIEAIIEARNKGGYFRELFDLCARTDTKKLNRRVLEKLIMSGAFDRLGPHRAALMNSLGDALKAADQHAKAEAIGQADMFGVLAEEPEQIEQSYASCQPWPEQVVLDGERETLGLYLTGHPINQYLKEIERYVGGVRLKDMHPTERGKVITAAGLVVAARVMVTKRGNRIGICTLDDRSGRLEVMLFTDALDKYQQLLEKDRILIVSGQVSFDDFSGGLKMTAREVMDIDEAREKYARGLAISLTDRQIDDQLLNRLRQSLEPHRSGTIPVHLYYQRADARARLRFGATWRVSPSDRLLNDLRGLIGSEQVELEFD
# In short: as §1
Compound,MIC [1] [µg/mL],MIC [2] [µg/mL],MIC [3] [µg/mL],MIC [4] [µg/mL],pIC50 [5],IC50 [6] [µM],IC50 [5] [µM],pIC50 [6],P. aeruginosa MB5890 efflux-del (MIC) ([1]; MHII broth) [µg/mL],S. pneumoniae MB2883 (MIC) ([2]; Isosensitest broth),S. aureus COL (MIC) ([3]; MHII broth + 50% human serum) [µg/mL],E. coli LS883 tolC (MIC) ([4]; MHII broth) [µg/mL],S. aureus DnaE IC50 [5] [µg/mL],E. coli DnaE IC50 [6] [µg/mL]
C=C1C[C@H]2[C@H]3O[C@]4(/C(C)=C/[C@@H](C)[C@@H]([C@@H](C)O)OC(=O)[C@@H](OC)C[C@@H]14)[C@@H]2[C@H](O)[C@@H](C)[C@H]3OC(=O)c1ccc[nH]1 [Example 199],> 128,> 128,32,16,7.55,142,–,–,–,–,–,–,–,–
CO[C@H]1C[C@H]2C=C[C@H]3[C@H]4O[C@]2(/C(C)=C/[C@@H](C)[C@@H]([C@@H](C)OC(=O)OCC(C)(N)CO)OC1=O)[C@@H]3[C@H](O)[C@@H](C)[C@H]4OC(=O)c1ccc[nH]1.O=C(O)C(F)(F)F (stereo partly drawn) [Example 28],32,128,2,2,~8.18,> 131,–,–,–,–,–,–,–,–
"CO[C@H]1C[C@H]2C=C[C@H]3[C@H]4O[C@]2(/C(C)=C/[C@@H](C)[C@@H]([C@@H](C)O)OC1=O)[C@@H]3[C@H](O)C(C)[C@H]4C#N (stereo partly drawn) [Example 188, (3R,4S,7S,8aS,10aR,11R,12S,14R,14aS,14bS,E)-14-hydroxy-4-((R)-1-hydroxyethyl)-7-methoxy-1,3,13-trimethyl-6-oxo-3,4,6,7,8,8a,10a,11,12,13,14,14a-dodecahydro-11,14b-epoxynaphtho[2,1-e]oxecine-12-carbonitrile]",64,128,128,32,6.64,> 232,–,–,–,–,–,–,–,–
CO[C@H]1C[C@H]2C=CC3C4[C@H](O)[C@@H](C)[C@@H](OC(=O)c5ccc[nH]5)[C@@H]3O[C@]42/C(C)=C/[C@@H](C)[C@@H]([C@@H](C)OC(=O)C(=O)OCCN2CCCC2)OC1=O.O=C(O)C(F)(F)F [Example 212],128,> 128,4,4,> 8.12,3.76,–,–,–,–,–,–,–,–
CO[C@H]1C[C@H]2C=C[C@H]3[C@H]4O[C@]2(/C(C)=C/[C@@H](C)[C@@H]([C@@H](C)O)OC1=O)[C@@H]3[C@H](O)C(C)[C@@H]4NCc1cccs1.O=C(O)C(F)(F)F (stereo partly drawn) [Example 153],> 128,> 128,> 128,> 128,–,–,47.5,< 3.80,–,–,–,–,–,–
CO[C@H]1CC2C=C[C@H]3[C@H]4O[C@]2(/C(C)=C/[C@@H](C)[C@@H](C(C)O)OC1=O)[C@@H]3[C@H](O)[C@@H](C)[C@H]4OC(=O)c1[nH]c(I)c(I)c1I (stereo partly drawn) [Example 42],> 128,1,32,> 128,5.35,44.8,–,–,–,–,–,–,–,–
CCCCCCCCNC(=O)O[C@H](C)[C@H]1OC(=O)[C@@H](OC)C[C@H]2C=C[C@H]3[C@H]4O[C@]2(/C(C)=C/[C@H]1C)[C@@H]3[C@H](O)[C@@H](C)[C@H]4OC(=O)c1ccc[nH]1 [Example 14],> 128,32,> 128,> 128,6.92,16.4,–,–,–,–,–,–,–,–
"CO[C@H]1C[C@H]2C=CC3C4[C@H](O)[C@@H](C)[C@@H](OC(=O)c5cc(NC(=O)c6ccccc6)c[nH]5)[C@@H]3O[C@]42/C(C)=C/[C@@H](C)[C@@H]([C@@H](C)O)OC1=O [Example 167, (3R,4S,7S,8aS,11R,12R,13R,14R,14bS,E)-14-hydroxy-4-((R)-1-hydroxyethyl)-7-methoxy-1,3,13-trimethyl-6-oxo-3,4,6,7,8,8a,10a,11,12,13,14,14a-dodecahydro-11,14b-epoxynaphtho[2,1-e]oxecin-12-yl 4-benzamido-1H-pyrrole-2-carboxylate]",> 128,> 128,> 128,> 128,5.50,> 158,–,–,–,–,–,–,–,–
CO[C@H]1C[C@H]2C=CC3C4[C@H](O)[C@@H](C)[C@@H](OC(=O)c5ccc[nH]5)[C@@H]3O[C@]42/C(C)=C/[C@@H](C)[C@@H]([C@@H](C)OC(=O)C(=O)OCCN2CCCCC2)OC1=O.O=C(O)C(F)(F)F [Example 213],128,> 128,4,4,> 8.13,4.43,–,–,–,–,–,–,–,–
C/C1=C\[C@@H](C)[C@@H](C(C)O)OC(=O)C(O)CC2C=C[C@H]3[C@H]4O[C@@]12[C@@H]3[C@H](O)[C@@H](C)[C@H]4OC(=O)c1ccc[nH]1 (stereo partly drawn) [Example 174],> 128,> 128,8,8,7.70,21.9,–,–,–,–,–,–,–,–
CO[C@H]1C[C@H]2C=CC3C4[C@H](O)[C@@H](C)[C@@H](OC(=O)c5ccc[nH]5)[C@@H]3O[C@]42/C(C)=C/[C@@H](C)[C@@H]([C@@H](C)OS(=O)(=O)O)OC1=O [Example 198],64,> 128,4,4,> 8.00,20.1,–,–,–,–,–,–,–,–
CO[C@H]1CC2C=C[C@H]3[C@H]4O[C@]2(/C(C)=C/[C@@H](C)[C@@H]([C@@H](C)O)OC1=O)[C@@H]3[C@H](OC(=O)NC1CC1)[C@@H](C)[C@H]4OC(=O)c1ccc[nH]1 (stereo partly drawn) [Example 39],> 128,> 128,> 128,> 128,–,–,15,< 3.78,–,–,–,–,–,–
CO[C@H]1C[C@H]2C=C[C@H]3[C@H]4O[C@]2(/C(C)=C/[C@@H](C)[C@@H]([C@@H](C)OC(=O)NCC(=O)O)OC1=O)[C@@H]3[C@H](O)[C@@H](C)[C@H]4OC(=O)c1ccc[nH]1 [Example 12],> 128,> 128,> 128,32,> 8.01,114,–,–,–,–,–,–,–,–
"CO[C@H]1C[C@H]2C=CC3C4[C@H](O)[C@@H](C)[C@@H](OC(=O)c5cc(-c6cccnc6)c[nH]5)[C@@H]3O[C@]42/C(C)=C/[C@@H](C)[C@@H]([C@@H](C)O)OC1=O [Example 164, (3R,4S,7S,8aS,11R,12R,13R,14R,14bS,E)-14-hydroxy-4-((R)-1-hydroxyethyl)-7-methoxy-1,3,13-trimethyl-6-oxo-3,4,6,7,8,8a,10a,11,12,13,14,14a-dodecahydro-11,14b-epoxynaphtho[2,1-e]oxecin-12-yl 4-(pyridin-3-yl)-1H-pyrrole-2-carboxylate]",> 128,32,> 128,16,4.99,–,–,< 3.77,–,–,–,–,–,–
CO[C@H]1C[C@H]2C=CC3C4[C@H](O)[C@@H](C)[C@@H](OC(=O)c5ccc[nH]5)[C@@H]3O[C@]42/C(C)=C/[C@@H](C)[C@@H]([C@@H](C)OC(=O)C(=O)NCc2ccccc2CN(C)C)OC1=O [Example 141],–,–,–,–,–,–,–,–,4,>128* μg/mL,0.25,0.25,<0.006,1
